“And” between values parts separate entries of the source, which are not always exact repeats. Equal values may be shown once. Read-outs that look alike come from different tables or passages of the source.
Key:
Assay type in all cases: cell-based
[1] = system: Treponema pallidum pallidum SS14 strain; assay: Treated treponemes seeded onto no-antibiotic plate, 7 more days, T47 qPCR (treponemicidal activity); details: for Mean T47 copies/μL, Avg. / Mean T47 copies/μL, Expt. values: seeded on no antibiotic plate; for Mean T47 copies/μL, Avg.: average; for Mean T47 copies/μL, Expt. values: replicate wells
[2] = system: Fusobacterium nucleatum (ATCC 25586); assay: MIC of Hyg A against F. nucleatum ATCC 25586; details: ATCC25586
[3] = system: Parvimonas micra (ATCC 33270); assay: MIC of Hyg A against P. micra; details: ATCC33270
[4] = system: Parvimonas micra (ATCC 33270); assay: MBC of Hyg A against P. micra; details: for MBC: ATCC33270
[5] = system: Treponema denticola; assay: MIC of Hyg A against Treponema denticola strains (broth dilution, phenol red); details: for MIC: Treponema denticola
[6] = system: Treponema pallidum pallidum Chicago strain; assay: Treated treponemes seeded onto no-antibiotic plate, 7 more days, T47 qPCR (treponemicidal activity); details: for Mean T47 copies/μL, Avg. / Mean T47 copies/μL, Expt. values: seeded on no antibiotic plate; for Mean T47 copies/μL, Avg.: average; for Mean T47 copies/μL, Expt. values: replicate wells
[7] = pre-treated with Hygromycin A 0.03 μg/ml
[8] = pre-treated with Hygromycin A 0.06 μg/ml
[9] = pre-treated with Hygromycin A 0.12 μg/ml
[10] = pre-treated with Hygromycin A 0.24 μg/ml
[11] = pre-treated with Hygromycin A 0.48 μg/ml
[12] = pre-treated with Hygromycin A 0.96 μg/ml
[13] = pre-treated with Hygromycin A 1.92 μg/ml
[14] = pre-treated with Hygromycin A 3.84 μg/ml

MIC ([2]; Fusobacterium nucleatum ATCC 25586, read-out: MIC): ~1 µg/mL | MIC ([2]; Fusobacterium nucleatum, F. nucleatum 25586, experiment 1, read-out: MIC (μg/ml) 1): 1 µg/mL | MIC ([2]; Fusobacterium nucleatum, F. nucleatum 25586, experiment 2, read-out: MIC (μg/ml) 2): 1 µg/mL | MIC ([3]; Parvimonas micra ATCC 33270, read-out: MIC): 2 µg/mL | MIC ([3]; Parvimonas micra, P. micra 33270, experiment 1, read-out: MIC (μg/ml) 1): 2 µg/mL | MIC ([3]; Parvimonas micra, P. micra 33270, experiment 2, read-out: MIC (μg/ml) 2): 2 µg/mL | MIC:MBC ratio ([4]; P. micra 33270): >0.2 | MIC ([5]; ATCC35404, ATCC strain 35404, range, read-out: MIC): 0.5 to 5 µg/mL | MIC ([5]; ATCC35405, Type strain ATCC 35405, read-out: MIC): 0.2 µg/mL | MIC ([5]; T. denticola 33520, experiment 1, read-out: MIC (μg/ml) 1): 1 µg/mL | MIC ([5]; T. denticola 33520, experiment 2, read-out: MIC (μg/ml) 2): 1 µg/mL | MIC ([5]; T. denticola 33521, experiment 1, read-out: MIC (μg/ml) 1): 0.5 µg/mL | MIC ([5]; T. denticola 33521, experiment 2, read-out: MIC (μg/ml) 2): 2 µg/mL | MIC ([5]; T. denticola 35404, experiment 1, read-out: MIC (μg/ml) 1): 0.5 to 1 µg/mL | MIC ([5]; T. denticola 35404, experiment 2, read-out: MIC (μg/ml) 2): 5 µg/mL | MIC ([5]; T. denticola 35405, experiment 1, read-out: MIC (μg/ml) 1): 0.2 µg/mL | MIC ([5]; T. denticola 35405, experiment 2, read-out: MIC (μg/ml) 2): 0.2 µg/mL | MIC ([5]; T. denticola ASLM, experiment 1, read-out: MIC (μg/ml) 1): 0.5 µg/mL | MIC ([5]; T. denticola ASLM, experiment 2, read-out: MIC (μg/ml) 2): 1 µg/mL | MIC ([5]; T. denticola H1-T, experiment 1, read-out: MIC (μg/ml) 1): 0.5 µg/mL | MIC ([5]; T. denticola H1-T, experiment 2, read-out: MIC (μg/ml) 2): 0.5 µg/mL | MIC ([5]; T. denticola OTK, experiment 1, read-out: MIC (μg/ml) 1): 0.5 µg/mL | MIC ([5]; T. denticola OTK, experiment 2, read-out: MIC (μg/ml) 2): 1 µg/mL | MIC ([5]; T. denticola SP44, experiment 1, read-out: MIC (μg/ml) 1): 1 µg/mL | MIC ([5]; T. denticola SP44, experiment 2, read-out: MIC (μg/ml) 2): 1 µg/mL | MIC ([5]; T. denticola US Trep, experiment 1, read-out: MIC (μg/ml) 1): 0.5 µg/mL | MIC ([5]; T. denticola US Trep, experiment 2, read-out: MIC (μg/ml) 2): 0.5 µg/mL | MIC ([5]; across T. denticola strains, read-out: MIC values for Treponema denticola strains, typical): ~0.5 µg/mL | MIC ([5]; low passage clinical isolate ASLM, read-out: MIC (Hyg A sensitivity)): 0.2 µg/mL | MIC ([5]; low passage clinical isolate SP44, read-out: MIC (Hyg A sensitivity)): 1 µg/mL | MIC values for Treponema denticola strains, range ([5]; across T. denticola strains): 0.2 to 1.0 µg/mL
SMILES: CC(=O)[C@H]1O[C@@H](Oc2ccc(/C=C(\C)C(=O)N[C@@H]3[C@H](O)[C@@H](O)[C@H]4OCO[C@H]4[C@@H]3O)cc2O)[C@@H](O)[C@@H]1O [Hyg A, Hygromycin A]
concentration with treponemicidal activity ([1]; SS14 strain seeded onto no-antibiotic control plate): ≥ 0.12 µg/mL | Mean T47 copies/μL, Avg. [1, 7]: 2232 copies/μL | Mean T47 copies/μL, Expt. values [1, 7]: 1649 copies/μL and 3690 copies/μL and 3831 copies/μL and 2114 copies/μL and 445 copies/μL and 1541 copies/μL and 2079 copies/μL and 2511 copies/μL | Mean T47 copies/μL, Avg. [1, 8]: 199 copies/μL | Mean T47 copies/μL, Expt. values [1, 8]: 137 copies/μL and 310 copies/μL and 274 copies/μL and 99 copies/μL and 71 copies/μL and 159 copies/μL and 200 copies/μL and 343 copies/μL | Mean T47 copies/μL, Avg. [1, 9]: 20 copies/μL | Mean T47 copies/μL, Expt. values [1, 9]: 17 copies/μL and 14 copies/μL and 45 copies/μL and 0 copies/μL and 22 copies/μL and 25 copies/μL and 15 copies/μL and 24 copies/μL | Mean T47 copies/μL, Avg. [1, 10]: 13 copies/μL | Mean T47 copies/μL, Expt. values [1, 10]: 35 copies/μL and 16 copies/μL (2×) and 6 copies/μL and 5 copies/μL and 21 copies/μL and 7 copies/μL and 0 copies/μL | Mean T47 copies/μL, Avg. [1, 11]: 9 copies/μL | Mean T47 copies/μL, Expt. values [1, 11]: 2 copies/μL and 0 copies/μL (2×) and 16 copies/μL and 10 copies/μL and 31 copies/μL and 5 copies/μL and 6 copies/μL | Mean T47 copies/μL, Avg. [1, 12]: 7 copies/μL | Mean T47 copies/μL, Expt. values [1, 12]: 8 copies/μL and 11 copies/μL and 0 copies/μL (2×) and 3 copies/μL (2×) and 16 copies/μL and 13 copies/μL | Mean T47 copies/μL, Avg. [1, 13]: 13 copies/μL | Mean T47 copies/μL, Expt. values [1, 13]: 5 copies/μL (2×) and 7 copies/μL and 17 copies/μL and 19 copies/μL (2×) and 8 copies/μL and 22 copies/μL | Mean T47 copies/μL, Avg. [1, 14]: 19 copies/μL | Mean T47 copies/μL, Expt. values [1, 14]: 19 copies/μL and 25 copies/μL and 21 copies/μL (2×) and 18 copies/μL and 7 copies/μL and 15 copies/μL and 22 copies/μL | MBC ([4]; Parvimonas micra ATCC 33270, read-out: MBC): > 10 µg/mL | type of effect (bactericidal/bacteriostatic) ([4]; P. micra): bacteriostatic | MBC ([4]; Parvimonas micra, P. micra 33270, experiment 1, read-out: MBC (μg/ml) 1): > 10 µg/mL | MBC ([4]; Parvimonas micra, P. micra 33270, experiment 2, read-out: MBC (μg/ml) 2): > 10 µg/mL | MIC ([5]; ATCC35404, ATCC 35404, strain most tolerant, read-out: MIC): 5 µg/mL | concentration with treponemicidal activity ([6]; Chicago strain seeded onto no-antibiotic control plate): ≥ 0.12 µg/mL | Mean T47 copies/μL, Avg. [6, 7]: 14552 copies/μL | Mean T47 copies/μL, Expt. values [6, 7]: 10276 copies/μL and 18338 copies/μL and 20335 copies/μL and 9952 copies/μL | Mean T47 copies/μL, Avg. [6, 8]: 1000 copies/μL | Mean T47 copies/μL, Expt. values [6, 8]: 744 copies/μL and 560 copies/μL and 2087 copies/μL and 892 copies/μL | Mean T47 copies/μL, Avg. [6, 9]: 28 copies/μL | Mean T47 copies/μL, Expt. values [6, 9]: 13 copies/μL and 19 copies/μL and 39 copies/μL and 22 copies/μL | Mean T47 copies/μL, Avg. [6, 10]: 32 copies/μL | Mean T47 copies/μL, Expt. values [6, 10]: 17 copies/μL and 41 copies/μL and 22 copies/μL and 52 copies/μL | Mean T47 copies/μL, Avg. [6, 11]: 26 copies/μL | Mean T47 copies/μL, Expt. values [6, 11]: 0 copies/μL and 32 copies/μL (2×) and 23 copies/μL and 22 copies/μL | Mean T47 copies/μL, Avg. [6, 12]: 24 copies/μL | Mean T47 copies/μL, Expt. values [6, 12]: 14 copies/μL and 23 copies/μL and 31 copies/μL and 27 copies/μL and 7 copies/μL

Source: patent publication US20240350522A1, “HYGROMYCIN A FOR TREATMENT OF DISEASES AND INFECTIONS” (FLIGHTPATH BIOSCIENCES, INC., priority 2021, published 2024)
